Measured values: patent US20240208994A1, “PLASMA KALLIKREIN INHIBITORS” (Merck Sharp & Dohme LLC, priority 2021, published 2024)

Tests used:
[1] = target: human factor XIa (Homo sapiens, UniProt P03951); test: Factor XIa Assay; type: biochemical; settings: human factor XIa 0.04 nM, 30 min pre-incubation at 25° C., substrate GPR-AFC, pH 7.4, 60 min incubation; read-out: FXIa IC50
[2] = target: T1, Human plasma kallikrein (Homo sapiens, UniProt P03952); test: Plasma Kallikrein Assay; type: biochemical; settings: purified Human plasma kallikrein 0.5 nM, substrate Acetyl-K-P-R-AFC, HEPES pH 7.4, fluorescence 405 Ex/510 Em; read-out: PKal IC50
T1 construct: yields a heavy chain (371 amino acids) and a light chain (248 amino acids); purchased Enzyme Research Laboratories
T1 sequence (P03952 391-638 limits assumed): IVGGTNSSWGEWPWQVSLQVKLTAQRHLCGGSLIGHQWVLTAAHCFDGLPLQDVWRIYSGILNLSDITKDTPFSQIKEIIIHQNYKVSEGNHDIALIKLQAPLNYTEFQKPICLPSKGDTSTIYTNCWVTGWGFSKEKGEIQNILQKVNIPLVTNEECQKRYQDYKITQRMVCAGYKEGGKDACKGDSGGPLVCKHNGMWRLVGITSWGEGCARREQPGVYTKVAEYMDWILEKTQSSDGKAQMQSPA
T1 sequence (P03952 20-390 partner limits assumed): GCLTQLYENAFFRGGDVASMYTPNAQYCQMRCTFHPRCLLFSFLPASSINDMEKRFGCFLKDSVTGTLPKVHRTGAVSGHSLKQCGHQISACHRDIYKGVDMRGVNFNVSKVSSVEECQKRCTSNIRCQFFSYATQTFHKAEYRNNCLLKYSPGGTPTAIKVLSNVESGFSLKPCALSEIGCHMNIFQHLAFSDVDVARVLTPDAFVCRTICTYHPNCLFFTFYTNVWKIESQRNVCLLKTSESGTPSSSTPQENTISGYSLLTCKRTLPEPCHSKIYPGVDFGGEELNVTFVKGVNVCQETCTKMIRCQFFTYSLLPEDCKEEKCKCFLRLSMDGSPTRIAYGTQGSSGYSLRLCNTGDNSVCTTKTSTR
Method in brief: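 Purified human plasma kallikrein (0.5 nM) with fluorogenic Acetyl-K-P-R-AFC at ≤0.2 Km in pH 7.4 HEPES with NaCl, CaCl2 and PEG 8000, after enzyme–inhibitor equilibration. Fluorescence read at 405/510 nm under linear conditions. IC50 from four-parameter fit; Ki by Cheng-Prusoff.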

Sequence of human factor XIa (P03951 388-625 limits assumed): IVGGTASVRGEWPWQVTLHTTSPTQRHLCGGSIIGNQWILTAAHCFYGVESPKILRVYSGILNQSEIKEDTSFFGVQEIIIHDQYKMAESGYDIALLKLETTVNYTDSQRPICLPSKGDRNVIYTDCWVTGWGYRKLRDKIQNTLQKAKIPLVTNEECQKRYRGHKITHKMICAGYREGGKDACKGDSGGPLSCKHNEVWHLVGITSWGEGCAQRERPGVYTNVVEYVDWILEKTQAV
Sequence of human factor XIa (P03951 19-387 partner limits assumed): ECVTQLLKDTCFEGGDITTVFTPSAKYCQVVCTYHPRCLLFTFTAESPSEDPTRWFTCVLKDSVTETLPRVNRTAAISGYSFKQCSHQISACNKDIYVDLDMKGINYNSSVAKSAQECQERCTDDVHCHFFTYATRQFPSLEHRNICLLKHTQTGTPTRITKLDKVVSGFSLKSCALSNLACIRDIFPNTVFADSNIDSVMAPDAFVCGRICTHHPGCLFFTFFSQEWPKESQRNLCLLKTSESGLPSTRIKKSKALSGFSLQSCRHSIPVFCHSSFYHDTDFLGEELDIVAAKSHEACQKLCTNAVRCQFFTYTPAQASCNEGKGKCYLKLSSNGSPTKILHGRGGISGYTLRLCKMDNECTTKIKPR

SMILES	IC50 [1] [nM]	IC50 [2] [nM]
Nc1cc(-c2ccc(OC(F)(F)F)cc2)nn1CC(=O)N1CC[C@@]2(C1)OC(=O)Nc1ccc(Cl)c(F)c12 [Example 7, (R)-1′-(2-(5-Amino-3-(4-(trifluoromethoxy)phenyl)-1H-pyrazol-1-yl)acetyl)-6-chloro-5-fluorospiro[benzo[d][1,3]oxazine-4,3′-pyrrolidin]-2(1H)-one]	4140	49
Nc1c(Cl)c(-c2ccc(F)cc2F)nn1CC(=O)N1CCC[C@@]2(C1)OC(=O)Nc1ccc(Cl)c(F)c12 [Example 21, (R)-1′-(2-(5-Amino-4-chloro-3-(2,4-difluorophenyl)-1H-pyrazol-1-yl)acetyl)-6-chloro-5-fluorospiro[benzo[d][1,3]oxazine-4,3′-piperidin]-2(1H)-one]	325	19
Cc1ccc(-c2cc(N)n(CC(=O)N3CC[C@@]4(C3)OC(=O)Nc3ccc(Cl)c(F)c34)n2)n1C [Example 45, (R)-1′-(2-(5-Amino-3-(1,5-dimethyl-1H-pyrrol-2-y1)-1H-pyrazol-1-yl)acetyl)-6-chloro-5-fluorospiro[benzo[d][1,3]oxazine-4,3′-pyrrolidin]-2(1H)-one]	2760	40.3
Cc1cccc(-c2cc(N)n(CC(=O)N3CC[C@@]4(C3)OC(=O)Nc3ccc(Cl)c(F)c34)n2)c1 [Example 42, (R)-1′-(2-(5-Amino-3-(m-toly1)-1H-pyrazol-1-yl)acetyl)-6-chloro-5-fluorospiro[benzo[d][1,3]oxazine-4,3′-pyrrolidin]-2(1H)-one]	611	15.1
Nc1cc(-c2cncc(Br)c2)nn1CC(=O)N1CC[C@@]2(C1)OC(=O)Nc1ccc(Cl)c(F)c12 [Example 44, (R)-1′-(2-(5-Amino-3-(5-bromopyridin-3-y1)-1H-pyrazol-1-yl)acetyl)-6-chloro-5-fluorospiro[benzo[d][1,3]oxazine-4,3'-pyrrolidin]-2(1H)-one]	389	11.2
Nc1cc(C2C3COCC32)nn1CC(=O)N1CC[C@@]2(C1)OC(=O)Nc1ccc(Cl)c(F)c12 (stereo partly drawn) [Example 61, (4R)-1′-(2-(5-Amino-3-(3-oxabicyclo[3.1.0]hexan-6-y1)-1H-pyrazol-1-yl)acetyl)-6-chloro-5-fluorospiro[benzo[d][1,3]oxazine-4,3′-pyrrolidin]-2(1H)-one]	791	27.2
CC1(C)CCc2c1nn(CC(=O)N1CC[C@@]3(C1)OC(=O)Nc1ccc(Cl)c(F)c13)c2N [Example 15, (R)-1′-(2-(3-Amino-6,6-dimethyl-5,6-dihydrocyclopenta[c]pyrazo1-2(4H)-yl)acetyl)-6-chloro-5-fluorospiro[benzo[d][1,3]oxazine-4,3′-pyrrolidin]-2(1H)-one]	100	40.6
Nc1cc(-c2ccco2)nn1CC(=O)N1CC[C@@]2(C1)OC(=O)Nc1ccc(Cl)c(F)c12 [Example 40, (R)-1′-(2-(5-Amino-3-(furan-2-y1)-1H-pyrazol-1-yl)acetyl)-6-chloro-5-fluorospiro[benzo[d] [1,3]oxazine-4,3′-pyrrolidin]-2(1H)-one]	225	16.2
